Laboratory results from patent US12215140B2, “Method of stabilizing protein contained in specimen and solution for stabilizing protein contained in specimen” (EIKEN KAGAKU KABUSHIKI KAISHA, priority 2018, dated 2025).

Tested on: hemoglobin-haptoglobin complex
Experiment: Stability of hemoglobin (as hemoglobin-haptoglobin complex) in samples preserved at 37° C. in preservation solution containing 1 unit/L haptoglobin, Hb measured by latex agglutination method (Examples 1 to 7)
Design: species or system human
Details: for Hb concentration / Recovery ratio with respect to Hb concentration after 0 days: 37° C.
Experimental: Preservation solutions were prepared with the addition of 40 mmol/L HEPES (pH 6.8), 0.1% BSA, 0.1% NaN3, 1 unit/L haptoglobin, and 0 to 100 mmol/L phenylboronic acid. Samples obtained by adding hemoglobin-added fecal specimens to the preservation solutions so that the fecal concentration would be 0.5% were preserved at 37° C. for 0, 7, 14, and 21 days. The fecal specimens were added with hemoglobin having an amount such that the hemoglobin concentration in the samples would be about 300 μg/L. Instead of the fecal specimens to which hemoglobin was added, samples containing no fecal specimens, in which hemoglobin was added to the preservation solutions so that the hemoglobin concentration in the samples would be 300 μg/L, were similarly preserved. The hemoglobin (Hb) concentrations (μg/L) in the preserved samples were measured by the latex agglutination method.
The concentrations of hemoglobin were measured using “OC-Hemodia (registered trademark) Auto III ‘EIKEN’” (available from EIKEN CHEMICAL CO., LTD.) as a measurement reagent and “OC-sensor DIANA” (available from EIKEN CHEMICAL CO., LTD.) as a measurement device. The above measurement reagent contains latex particles immobilizing an anti-human hemoglobin rabbit polyclonal antibody.
From the measured concentrations of hemoglobin, the recovery ratios (%) were calculated with respect to the hemoglobin concentrations immediately after the fecal specimens were added to the preservation solutions (i.e., concentrations 0 days after the fecal specimens were added).
(§1) For comparative examples, preservation solutions to which no arylboronic acid was added were prepared, and testing was conducted in the same manner.
(§2) The concentration of phenylboronic acid in the preservation solutions of Example 1 was fixed to 15 mmol/L, preservation solutions to which a sugar (sorbitol, sucrose, trehalose, glucose, fructose, or mannitol) was further added at 50 mmol/L or 100 mmol/L or preservation solutions to which no sugar was added were prepared, and testing was conducted in the same manner as in Example 1. For comparative examples, preservation solutions to which the phenylboronic acid and sugar were not added were prepared, and testing was conducted in the same manner.
Preservation solutions in which sorbitol, sucrose, trehalose, glucose, fructose, or mannitol was added at 100 mmol/L to the preservation solutions of Example 1 containing no phenylboronic acid were prepared, and testing was conducted in the same manner as in Example 1. For comparison, the same testing was conducted without adding these sugars.
as §2, with “sorbitol” for “a sugar (sorbitol, sucrose, trehalose, glucose, fructose, or mannitol)”, “was” for “was further”, “10 to 500” for “50”, “sucrose was added at 10 to 250” for “100”
as §1

[1] = Feces 1, sugar 50 mmol/L + phenylboronic acid 15 mmol/L, 0 days
[2] = Feces 1, sugar 50 mmol/L + phenylboronic acid 15 mmol/L, 7 days
[3] = Feces 1, sugar 50 mmol/L + phenylboronic acid 15 mmol/L, 14 days
[4] = Feces 1, sugar 50 mmol/L + phenylboronic acid 15 mmol/L, 21 days
[5] = Feces 1, sugar 100 mmol/L + phenylboronic acid 15 mmol/L, 0 days
[6] = Feces 1, sugar 100 mmol/L + phenylboronic acid 15 mmol/L, 7 days
[7] = Feces 1, sugar 100 mmol/L + phenylboronic acid 15 mmol/L, 14 days
[8] = Feces 1, sugar 100 mmol/L + phenylboronic acid 15 mmol/L, 21 days
[9] = Feces 1, sugar 100 mmol/L, no phenylboronic acid, 0 days
[10] = Feces 1, sugar 100 mmol/L, no phenylboronic acid, 7 days
[11] = Feces 1, sugar 100 mmol/L, no phenylboronic acid, 14 days
[12] = Feces 1, sugar 100 mmol/L, no phenylboronic acid, 21 days
[13] = Feces 2, sugar 50 mmol/L + phenylboronic acid 15 mmol/L, 0 days
[14] = Feces 2, sugar 50 mmol/L + phenylboronic acid 15 mmol/L, 7 days
[15] = Feces 2, sugar 50 mmol/L + phenylboronic acid 15 mmol/L, 14 days
[16] = Feces 2, sugar 50 mmol/L + phenylboronic acid 15 mmol/L, 21 days
[17] = Feces 2, sugar 100 mmol/L + phenylboronic acid 15 mmol/L, 0 days
[18] = Feces 2, sugar 100 mmol/L + phenylboronic acid 15 mmol/L, 7 days
[19] = Feces 2, sugar 100 mmol/L + phenylboronic acid 15 mmol/L, 14 days
[20] = Feces 2, sugar 100 mmol/L + phenylboronic acid 15 mmol/L, 21 days
[21] = Feces 2, sugar 100 mmol/L, no phenylboronic acid, 0 days
[22] = Feces 2, sugar 100 mmol/L, no phenylboronic acid, 7 days
[23] = Feces 2, sugar 100 mmol/L, no phenylboronic acid, 14 days
[24] = Feces 2, sugar 100 mmol/L, no phenylboronic acid, 21 days
[25] = Feces 3, sugar 50 mmol/L + phenylboronic acid 15 mmol/L, 0 days
[26] = Feces 3, sugar 50 mmol/L + phenylboronic acid 15 mmol/L, 7 days
[27] = Feces 3, sugar 50 mmol/L + phenylboronic acid 15 mmol/L, 14 days
[28] = Feces 3, sugar 50 mmol/L + phenylboronic acid 15 mmol/L, 21 days
[29] = Feces 3, sugar 100 mmol/L + phenylboronic acid 15 mmol/L, 0 days
[30] = Feces 3, sugar 100 mmol/L + phenylboronic acid 15 mmol/L, 7 days
[31] = Feces 3, sugar 100 mmol/L + phenylboronic acid 15 mmol/L, 14 days
[32] = Feces 3, sugar 100 mmol/L + phenylboronic acid 15 mmol/L, 21 days
[33] = Feces 3, sugar 100 mmol/L, no phenylboronic acid, 0 days
[34] = Feces 3, sugar 100 mmol/L, no phenylboronic acid, 7 days
[35] = Feces 3, sugar 100 mmol/L, no phenylboronic acid, 14 days
[36] = Feces 3, sugar 100 mmol/L, no phenylboronic acid, 21 days
[37] = No feces, sugar 50 mmol/L + phenylboronic acid 15 mmol/L, 0 days
[38] = No feces, sugar 50 mmol/L + phenylboronic acid 15 mmol/L, 7 days
[39] = No feces, sugar 50 mmol/L + phenylboronic acid 15 mmol/L, 14 days
[40] = No feces, sugar 50 mmol/L + phenylboronic acid 15 mmol/L, 21 days
[41] = No feces, sugar 100 mmol/L + phenylboronic acid 15 mmol/L, 0 days
[42] = No feces, sugar 100 mmol/L + phenylboronic acid 15 mmol/L, 7 days
[43] = No feces, sugar 100 mmol/L + phenylboronic acid 15 mmol/L, 14 days
[44] = No feces, sugar 100 mmol/L + phenylboronic acid 15 mmol/L, 21 days
[45] = No feces, sugar 100 mmol/L, no phenylboronic acid, 0 days
[46] = No feces, sugar 100 mmol/L, no phenylboronic acid, 7 days
[47] = No feces, sugar 100 mmol/L, no phenylboronic acid, 14 days
[48] = No feces, sugar 100 mmol/L, no phenylboronic acid, 21 days

OC[C@H]1O[C@H](O[C@H]2O[C@H](CO)[C@@H](O)[C@H](O)[C@H]2O)[C@H](O)[C@@H](O)[C@@H]1O [Trehalose, trehalose]
Hb concentration [1]: 299 µg/L
Recovery ratio with respect to Hb concentration after 0 days [1]: 100%
Hb concentration [2]: 261 µg/L
Recovery ratio with respect to Hb concentration after 0 days [2]: 87%
Hb concentration [3]: 247 µg/L
Recovery ratio with respect to Hb concentration after 0 days [3]: 83%
Hb concentration [4]: 241 µg/L
Recovery ratio with respect to Hb concentration after 0 days [4]: 81%
Hb concentration [5]: 291 µg/L
Recovery ratio with respect to Hb concentration after 0 days [5]: 100%
Hb concentration [6]: 249 µg/L
Recovery ratio with respect to Hb concentration after 0 days [6]: 86%
Hb concentration [7]: 238 µg/L
Recovery ratio with respect to Hb concentration after 0 days [7]: 82%
Hb concentration [8]: 230 µg/L
Recovery ratio with respect to Hb concentration after 0 days [8]: 79%
Hb concentration [9]: 266 µg/L
Recovery ratio with respect to Hb concentration after 0 days [9]: 100%
Hb concentration [10]: 121 µg/L
Recovery ratio with respect to Hb concentration after 0 days [10]: 45%
Hb concentration [11]: 80 µg/L
Recovery ratio with respect to Hb concentration after 0 days [11]: 30%
Hb concentration [12]: 44 µg/L
Recovery ratio with respect to Hb concentration after 0 days [12]: 17%
Hb concentration [13]: 284 µg/L
Recovery ratio with respect to Hb concentration after 0 days [13]: 100%
Hb concentration [14]: 257 µg/L
Recovery ratio with respect to Hb concentration after 0 days [14]: 90%
Hb concentration [15]: 223 µg/L
Recovery ratio with respect to Hb concentration after 0 days [15]: 79%
Hb concentration [16]: 201 µg/L
Recovery ratio with respect to Hb concentration after 0 days [16]: 71%
Hb concentration [17]: 269 µg/L
Recovery ratio with respect to Hb concentration after 0 days [17]: 100%
Hb concentration [18]: 251 µg/L
Recovery ratio with respect to Hb concentration after 0 days [18]: 93%
Hb concentration [19]: 227 µg/L
Recovery ratio with respect to Hb concentration after 0 days [19]: 84%
Hb concentration [20]: 206 µg/L
Recovery ratio with respect to Hb concentration after 0 days [20]: 77%
Hb concentration [21]: 264 µg/L
Recovery ratio with respect to Hb concentration after 0 days [21]: 100%
Hb concentration [22]: 106 µg/L
Recovery ratio with respect to Hb concentration after 0 days [22]: 40%
Hb concentration [23]: 61 µg/L
Recovery ratio with respect to Hb concentration after 0 days [23]: 23%
Hb concentration [24]: 41 µg/L
Recovery ratio with respect to Hb concentration after 0 days [24]: 16%
Hb concentration [25]: 282 µg/L
Recovery ratio with respect to Hb concentration after 0 days [25]: 100%
Hb concentration [26]: 221 µg/L
Recovery ratio with respect to Hb concentration after 0 days [26]: 78%
Hb concentration [27]: 197 µg/L
Recovery ratio with respect to Hb concentration after 0 days [27]: 70%
Hb concentration [28]: 178 µg/L
Recovery ratio with respect to Hb concentration after 0 days [28]: 63%
Hb concentration [29]: 281 µg/L
Recovery ratio with respect to Hb concentration after 0 days [29]: 100%
Hb concentration [30]: 213 µg/L
Recovery ratio with respect to Hb concentration after 0 days [30]: 76%
Hb concentration [31]: 192 µg/L
Recovery ratio with respect to Hb concentration after 0 days [31]: 68%
Hb concentration [32]: 179 µg/L
Recovery ratio with respect to Hb concentration after 0 days [32]: 64%
Hb concentration [33]: 267 µg/L
Recovery ratio with respect to Hb concentration after 0 days [33]: 100%
Hb concentration [34]: 91 µg/L
Recovery ratio with respect to Hb concentration after 0 days [34]: 34%
Hb concentration [35]: 56 µg/L
Recovery ratio with respect to Hb concentration after 0 days [35]: 21%
Hb concentration [36]: 47 µg/L
Recovery ratio with respect to Hb concentration after 0 days [36]: 18%
Hb concentration [37]: 268 µg/L
Recovery ratio with respect to Hb concentration after 0 days [37]: 100%
Hb concentration [38]: 253 µg/L
Recovery ratio with respect to Hb concentration after 0 days [38]: 94%
Hb concentration [39]: 255 µg/L
Recovery ratio with respect to Hb concentration after 0 days [39]: 95%
Hb concentration [40]: 257 µg/L
Recovery ratio with respect to Hb concentration after 0 days [40]: 96%
Hb concentration [41]: 269 µg/L
Recovery ratio with respect to Hb concentration after 0 days [41]: 100%
Hb concentration [42]: 248 µg/L
Recovery ratio with respect to Hb concentration after 0 days [42]: 92%
Hb concentration [43]: 251 µg/L
Recovery ratio with respect to Hb concentration after 0 days [43]: 93%
Hb concentration [44]: 251 µg/L
Recovery ratio with respect to Hb concentration after 0 days [44]: 93%
Hb concentration [45]: 243 µg/L
Recovery ratio with respect to Hb concentration after 0 days [45]: 100%
Hb concentration [46]: 229 µg/L
Recovery ratio with respect to Hb concentration after 0 days [46]: 94%
Hb concentration [47]: 225 µg/L
Recovery ratio with respect to Hb concentration after 0 days [47]: 93%
Hb concentration [48]: 222 µg/L
Recovery ratio with respect to Hb concentration after 0 days [48]: 91%
recovery ratio of hemoglobin in the samples containing fecal specimens (sugar 100 mmol/L, preservation solutions containing no phenylboronic acid): does not improve
recovery ratios (sugar further added to phenylboronic acid 15 mmol/L, Feces 3): not improved
